Structures are written as SMILES.

The values that follow come from patent publication EP0554004A2, “Cephem compounds and antibacterial agents” (KATAYAMA SEIYAKUSYO CO. Ltd., priority 1992, dated 1993).

In one test the test system is clinically isolated MRSA. In words: Antibacterial potency against clinically isolated MRSA (Test Example 2). The note with it: Staphylococcus aureus, 52 strains of clinically isolated MRSA. It is filed as cell-based, methicillin-resistant Staphylococcus aureus. On the procedure: A test on the antibacterial potency against clinically isolated MRSA was conducted in the following way.
52 strains of clinically isolated MRSA were used, and MIC was determined for each of the strains according to the standard method of the Japan Chemotherapical Society as in Test Example 1. The minimum growth inhibitory concentration which inhibited growth of 50% of the strains tested was expressed as MIC50 (µg/ml), and the minimum growth inhibitory concentration which inhibited growth of 90% of the strains was expressed as MIC90 (µg/ml).
In this test, FMOX (flomoxef), IPM/CS (imipenem/cilastatin), CMZ (cefmetazole), MINO (minocycline) and DMPPC (methicillin) were used as control agents.

For test [1], the system named is Serratia marcescens IAM 1184. In words: MIC against standard strains (Test Example 1). It is filed as cell-based. Particulars: IAM1184, Muller-Hinton agar, 37°C overnight. On the procedure:
(§1) By using each test strain cultured overnight at 37°C in a Muller-Hinton broth, there was prepared a bacterial solution with a bacterial cell population of 1 x 10^6 CFU/mi of the same bouillon. The bacterial solution was inoculated into the Muller-Hinton agar media each containing respectively one test agent and, after overnight incubation at 37°C, the minimum concentration that inhibited growth of the bacteria was determined and shown as MIC also in Table 1.
(§2) Staphylococcus aureus 167 and Staphylococcus aureus 195 used in the test were MRSA. CTM (cefotiam) and FMOX (flomoxef) were used as control agents.

Test [2] concerns Escherichia coli CSH2 (RE45). The experiment in a line: MIC against standard strains (Test Example 1). It is filed as cell-based. On the procedure: as §1, §2
Test [3] concerns Escherichia coli NIHJ JC-2. The experiment in a line: MIC against standard strains (Test Example 1). Particulars: NIHJJC2, Muller-Hinton agar, 37°C overnight. It is filed as cell-based. On the procedure:
as §1, §2

The test system of test [4] is Staphylococcus aureus Smith. The experiment in a line: MIC against standard strains (Test Example 1). It counts as cell-based. The note with it: Muller-Hinton agar, 37°C overnight. On the procedure: as §1, §2
For test [5], the system named is Psuedomonas aeruginosa IFO 3445. In words: MIC against standard strains (Test Example 1). It counts as cell-based. Particulars: Muller-Hinton agar, 37°C overnight. The procedure:
as §1, §2

For test [6], the system named is Bacillus subtilis ATCC 6633. In words: MIC against standard strains (Test Example 1). It is filed as cell-based. The note with it: ATCC6633, Muller-Hinton agar, 37°C overnight. The procedure:
as §1, §2

The test system of test [7] is Proteus mirabilis IFO 3849. In words: MIC against standard strains (Test Example 1). It is filed as cell-based. Particulars: IFO3849, Muller-Hinton agar, 37°C overnight. On the procedure:
as §1, §2

Test [8] relates to Staphylococcus aureus 209P JC-1. In words: MIC against standard strains (Test Example 1). It counts as cell-based. The note with it: Muller-Hinton agar, 37°C overnight. On the procedure: as §1, §2
In test [9] the test system is Morganella morganii IFO 3848. The experiment in a line: MIC against standard strains (Test Example 1). It counts as cell-based. The note with it: IFO3848, Muller-Hinton agar, 37°C overnight. On the procedure:
as §1, §2

Test [10] has as its system Citrobacter freundii ATCC 8090. In words: MIC against standard strains (Test Example 1). It is filed as cell-based. The note with it: ATCC8090, Muller-Hinton agar, 37°C overnight. On the procedure:
as §1, §2

Test [11] deals with Escherichia coli CSH2 (RK1). In words: MIC against standard strains (Test Example 1). It is filed as cell-based. On the procedure:
as §1, §2

In test [12] the test system is Staphylococcus epidermidis IAM 1296. The experiment in a line: MIC against standard strains (Test Example 1). It is filed as cell-based. Particulars: IAM1296, Muller-Hinton agar, 37°C overnight. On the procedure: as §1, §2
Test [13] relates to Pseudomonas aeruginosa NCTC 10490. The experiment in a line: MIC against standard strains (Test Example 1). It is filed as cell-based. Particulars: NCTC10490, Muller-Hinton agar, 37°C overnight. The procedure:
as §1, §2

In test [14] the test system is Staphylococcus aureus 167. In words: MIC against standard strains (Test Example 1). It counts as cell-based. Particulars: Staphylococcus aureus 167 (MRSA); Muller-Hinton agar, 37°C overnight. On the procedure:
as §1, §2

Test [15] concerns Klebsiella pneumoniae No. 42. The experiment in a line: MIC against standard strains (Test Example 1). It counts as cell-based. Particulars: Muller-Hinton agar, 37°C overnight. The procedure: as §1, §2
The test system of the next test is Proteus vulgalis OX-19. The experiment in a line: MIC against standard strains (Test Example 1). It counts as cell-based. The note with it: Muller-Hinton agar, 37°C overnight. On the procedure:
as §1, §2

The test system of test [16] is Enterobacter cloacae ATCC 13407. In words: MIC against standard strains (Test Example 1). The note with it: ATCC13407, Muller-Hinton agar, 37°C overnight. It is filed as cell-based. On the procedure: as §1, §2
Test [17] concerns Staphylococcus aureus 195. The experiment in a line: MIC against standard strains (Test Example 1). It is filed as cell-based. Particulars: Staphylococcus aureus 195 (MRSA); Muller-Hinton agar, 37°C overnight. On the procedure: as §1, §2
Test [18] has as its system Micrococcus luteus ATCC 9341. The experiment in a line: MIC against standard strains (Test Example 1). It is filed as cell-based. The note with it: ATCC9341, Muller-Hinton agar, 37°C overnight. On the procedure:
as §1, §2

Test [19] has as its system Klebsiella pneumoniae IFO 3317. The experiment in a line: MIC against standard strains (Test Example 1). It counts as cell-based. The note with it: IFO3317, Muller-Hinton agar, 37°C overnight. The procedure: as §1, §2

The term MIC50 denotes the lowest concentration that inhibits either 50% of growth or 50% of the strains tested, depending on the study. The MIC90 is the lowest concentration that inhibits either 90% of growth or 90% of the strains tested, depending on the study. Usually MIC stands for the least concentration at which growth counts as inhibited. A high value points to a less susceptible organism. In the test on clinically isolated MRSA (concentration inhibiting growth of 50% of the strains (Test Example 2)), `Nc1nc(/C(=N/O)C(=O)N[C@@H]2C(=O)N3C(C(=O)[O-])=C(C[n+]4ccc(-c5csc(N)n5)cc4)CS[C@H]23)cs1` [Compound (5), 7β-[2-(2-aminothiazol-4-yl)-2-syn-hydroxyiminoacetamido]-3-[[4-(2-aminothiazol-4-yl)-1-pyridi-i-nio]methyl]-3-cephem-4-carboxylic acid chloride] displayed an MIC50 of 3.13 µg/mL. In the test on clinically isolated MRSA (concentration inhibiting growth of 90% of the strains (Test Example 2)), this compound showed an MIC90 of 8.69 µg/mL. Besides, the MIC in test [1] stood at 0.2 µg/mL; in test [2], 0.05 µg/mL; in [3], 0.2 µg/mL; in test [4], 0.2 µg/mL; in test [5], 25 µg/mL; in test [6], 0.2 µg/mL. Moreover, the MIC is 0.1 µg/mL in [7]; 0.2 µg/mL in test [8]; 0.05 µg/mL in test [9]; 0.2 µg/mL in test [10]; 0.2 µg/mL in [11]; 0.1 µg/mL in test [12]. Besides, the MIC in test [13] worked out at 1.56 µg/mL; in test [14], 6.25 µg/mL; in test [15], 0.1 µg/mL; against Proteus vulgalis OX-19 it was 0.2 µg/mL; in test [16] it was 0.78 µg/mL; in test [17], 3.13 µg/mL. The MIC in [18] is 0.025 µg/mL; in test [19], 0.05 µg/mL.
